Structures are written as SMILES. Starred links: 1 amine or outer side, 2 acyl side, 3 side chain; linkers in the order of their positions; H or OH if unused. Positions of bridges follow the written chain, without caps; N, C: chain ends. Non-standard residues stand in square brackets, D forms with d. Residues, ends and D or L forms follow the SMILES beside them. *: point of attachment. Phe(4-(CH2)5CO) = O=C([C@H](Cc1ccc(CCCCCC(=O)[*:3])cc1)N[*:1])[*:2]; Phe(3-(CH2)4CO) = O=C([C@H](Cc1cccc(CCCCC(=O)[*:3])c1)N[*:1])[*:2]; NMeF = CN[C@@H](Cc1ccccc1)C(=O)O; NMeI = CC[C@H](C)[C@H](NC)C(=O)O; NMeL = CN[C@@H](CC(C)C)C(=O)O; NMeV = CN[C@H](C(=O)O)C(C)C; NMeA = CN[C@@H](C)C(=O)O; Piperidide = C1CCN(*)CC1; NPrGly = CCCNCC(=O)O; Sar = CNCC(=O)O; tBu = CC(C)(C)*

The nature of the series: Metabolic stability in human hepatic microsome. Type of series: in vitro ADME. The note with it: microsomes, pH 7.4; human hepatic microsome, NADPH(+); read-out: CL NADPH(+).
For the molecule `CC[C@H](C)[C@@H]1NC(=O)[C@H](C)N(C)C(=O)CCCCCc2ccc(cc2)C[C@@H](C(=O)N2CCCCC2)NC(=O)[C@H](CC(C)C)N(C)C(=O)[C@H](CC(C)C)N(C)C(=O)[C@H](C)N(C)C(=O)[C@H]([C@@H](C)O)NC(=O)[C@H](Cc2ccccc2)N(C)C(=O)[C@H](Cc2ccccc2)N(C)C1=O` [DP-841] ([NMeA]I[NMeF][NMeF]T[NMeA][NMeL][NMeL][Phe(4-(CH2)5CO)]-Piperidide; lactam N-9), the microsomal CLint at 1 uM was found to be 386 µL/min/mg.
Under `CC(C)C[C@@H]1NC(=O)[C@H](Cc2ccccc2)NC(=O)[C@H](CC(C)C)N(C)C(=O)[C@H](Cc2ccccc2)NC(=O)CCCCCc2ccc(cc2)C[C@@H](C(=O)N2CCCCC2)NC(=O)[C@H](Cc2ccccc2)N(C)C(=O)CNC(=O)[C@H]([C@@H](C)O)NC(=O)[C@H](CC(C)C)NC1=O` [DP-842] (F[NMeL]FLLTG[NMeF][Phe(4-(CH2)5CO)]-Piperidide; lactam N-9) stands 135 µL/min/mg.
Consider `C=C1CCC(=O)N(C)[C@@H](Cc2ccccc2)C(=O)N(C)[C@@H](CC(C)C)C(=O)N[C@@H]([C@@H](C)O)C(=O)N(C)[C@@H](C)C(=O)NCC(=O)N(C)[C@@H](CC(C)C)C(=O)N(C)[C@@H](CC(C)C)C(=O)N(C)[C@@H](CC(C)C)C(=O)N[C@H](C(=O)N2CCCCC2)Cc2ccc1cc2` [DP-845], for which the microsomal CLint at 1 uM amounted to 248 µL/min/mg.
Under `CC[C@H](C)[C@@H]1NC(=O)[C@H](C)N(C)C(=O)CCCCc2cccc(c2)C[C@@H](C(=O)N2CCCCC2)NC(=O)[C@H](CC(C)C)N(C)C(=O)[C@H](C)N(C)C(=O)[C@H]([C@@H](C)O)NC(=O)[C@H](Cc2ccccc2)N(C)C(=O)[C@H](Cc2ccccc2)N(C)C(=O)[C@H](CC(C)C)N(C)C1=O` [DP-849] ([NMeA]I[NMeL][NMeF][NMeF]T[NMeA][NMeL][Phe(3-(CH2)4CO)]-Piperidide; lactam N-9) stands 202 µL/min/mg.
Under `C=C1CCC(=O)N(C)[C@@H](Cc2ccccc2)C(=O)N[C@@H](CC(C)C)C(=O)N(C)[C@@H](CC(C)C)C(=O)N[C@@H]([C@@H](C)O)C(=O)N(C)CC(=O)N(C)[C@@H]([C@@H](C)CC)C(=O)N[C@@H](COC(C)(C)C)C(=O)N(C)[C@@H](Cc2ccccc2)C(=O)N(C)[C@@H](C(C)C)C(=O)N[C@H](C(=O)N2CCCCC2)Cc2ccc1cc2` [DP-850] stands 119 µL/min/mg; under `C=C1CCC(=O)N(C)[C@@H](Cc2ccccc2)C(=O)N[C@@H](CC(C)C)C(=O)N(C)[C@@H](CC(C)C)C(=O)N[C@@H]([C@@H](C)O)C(=O)N(C)CC(=O)N(C)[C@@H]([C@@H](C)CC)C(=O)N[C@@H](COC(C)(C)C)C(=O)N(C)[C@@H](Cc2ccccc2)C(=O)N(C)[C@@H](C(C)C)C(=O)N[C@H](C(=O)N2CCCCC2)Cc2cccc1c2` [DP-851], 99 µL/min/mg.
Under `CC[C@H](C)[C@H]1C(=O)N[C@@H](COC(C)(C)C)C(=O)N(C)[C@@H](Cc2ccccc2)C(=O)N(C)[C@@H](C(C)C)C(=O)N[C@H](C(=O)N2CCCCC2)Cc2cccc(c2)CCCCC(=O)N(C)[C@@H](Cc2ccccc2)C(=O)N[C@@H](CC(C)C)C(=O)N(C)[C@@H](CC(C)C)C(=O)N[C@@H]([C@@H](C)O)C(=O)N(C)CC(=O)N1C` [DP-853] ([NMeF]L[NMeL]T[Sar][NMeI]S(tBu)[NMeF][NMeV][Phe(3-(CH2)4CO)]-Piperidide; lactam N-10) stands 120 µL/min/mg; under `C=C1CCC(=O)N[C@@H](CC(C)C)C(=O)N(C)[C@@H](CC(C)C)C(=O)N(C)[C@@H](Cc2ccccc2)C(=O)N[C@@H](C)C(=O)N(C)[C@@H](Cc2ccccc2)C(=O)N(C)[C@@H]([C@@H](C)CC)C(=O)N[C@@H]([C@@H](C)O)C(=O)N(C)CC(=O)N(C)[C@@H](CC(C)C)C(=O)N[C@H](C(=O)N2CCCCC2)Cc2ccc1cc2` [DP-854], 252 µL/min/mg; under `C=C1CCC(=O)N[C@@H](CC(C)C)C(=O)N(C)[C@@H](CC(C)C)C(=O)N(C)[C@@H](Cc2ccccc2)C(=O)N[C@@H](C)C(=O)N(C)[C@@H](Cc2ccccc2)C(=O)N(C)[C@@H]([C@@H](C)CC)C(=O)N[C@@H]([C@@H](C)O)C(=O)N(C)CC(=O)N(C)[C@@H](CC(C)C)C(=O)N[C@H](C(=O)N2CCCCC2)Cc2cccc1c2` [DP-855], 210 µL/min/mg.
Take `CC[C@H](C)[C@H]1C(=O)N[C@@H]([C@@H](C)O)C(=O)N(C)CC(=O)N(C)[C@@H](CC(C)C)C(=O)N[C@H](C(=O)N2CCCCC2)Cc2cccc(c2)CCCCC(=O)N[C@@H](CC(C)C)C(=O)N(C)[C@@H](CC(C)C)C(=O)N(C)[C@@H](Cc2ccccc2)C(=O)N[C@@H](C)C(=O)N(C)[C@@H](Cc2ccccc2)C(=O)N1C` [DP-857] (L[NMeL][NMeF]A[NMeF][NMeI]T[Sar][NMeL][Phe(3-(CH2)4CO)]-Piperidide; lactam N-10): the microsomal CLint at 1 uM was determined as 284 µL/min/mg.
In the case of `CC(C)C[C@H]1C(=O)N(C)[C@@H](CC(C)C)C(=O)N[C@@H](C)C(=O)N(C)[C@@H](CC(C)C)C(=O)N(C)[C@@H](Cc2ccccc2)C(=O)N(C)[C@@H](Cc2ccccc2)C(=O)N[C@@H]([C@@H](C)O)C(=O)N(C)[C@@H](C)C(=O)N(C)[C@@H](CC(C)C)C(=O)N[C@H](C(=O)N2CCCCC2)Cc2cccc(c2)CCCCC(=O)N1C` [DP-859] ([NMeL][NMeL]A[NMeL][NMeF][NMeF]T[NMeA][NMeL][Phe(3-(CH2)4CO)]-Piperidide; lactam N-10) it was 87 µL/min/mg; in that of `CC[C@H](C)[C@H]1C(=O)N(C)[C@@H](C)C(=O)N(C)[C@@H](Cc2ccccc2)C(=O)N[C@@H]([C@@H](C)O)C(=O)N(C)[C@@H](Cc2ccccc2)C(=O)N(C)[C@@H](CC(C)C)C(=O)N2CCC[C@H]2C(=O)N[C@H](C(=O)N2CCCCC2)Cc2cccc(c2)CCCCC(=O)NCC(=O)N(C)[C@@H](CC(C)C)C(=O)N1C` [DP-860] (G[NMeL][NMeI][NMeA][NMeF]T[NMeF][NMeL]P[Phe(3-(CH2)4CO)]-Piperidide; lactam N-10), 322 µL/min/mg.
As for `C=C1CCC(=O)N[C@@H](CC(C)C)C(=O)N2CCC[C@H]2C(=O)N[C@@H]([C@@H](C)O)C(=O)N(C)CC(=O)N[C@@H](Cc2ccccc2)C(=O)N(C)[C@@H](C(C)C)C(=O)N(C)[C@@H](C)C(=O)N[C@@H](CC(C)C)C(=O)N(C)[C@@H](CC(C)C)C(=O)N[C@H](C(=O)N2CCCCC2)Cc2cccc1c2` [DP-866], the microsomal CLint at 1 uM is 211 µL/min/mg.
Under `CCCN1CC(=O)N(C)[C@@H](Cc2ccccc2)C(=O)N[C@@H](C)C(=O)N(C)[C@@H](Cc2ccccc2)C(=O)N(C)[C@@H](CC(C)C)C(=O)N(C)[C@@H]([C@@H](C)CC)C(=O)N(C)[C@@H](CC(C)C)C(=O)N[C@H](C(=O)N2CCCCC2)Cc2cccc(c2)CCCCC(=O)N[C@@H](CC(C)C)C(=O)N[C@@H]([C@@H](C)O)C1=O` [DP-867] (LT[NPrGly][NMeF]A[NMeF][NMeL][NMeI][NMeL][Phe(3-(CH2)4CO)]-Piperidide; lactam N-10) stands 211 µL/min/mg; under `C=C1CCC(=O)N[C@@H](CC(C)C)C(=O)N2CCC[C@H]2C(=O)N(C)[C@@H](C(C)C)C(=O)N[C@@H](Cc2ccccc2)C(=O)N(C)[C@@H](Cc2ccccc2)C(=O)N(C)[C@@H](CC(C)C)C(=O)N[C@@H](C)C(=O)N(C)[C@@H]([C@@H](C)CC)C(=O)N[C@H](C(=O)N2CCCCC2)Cc2cccc1c2` [DP-870], 474 µL/min/mg.

Values taken from patent publication US9409952B2, “Peptide-compound cyclization method” (Chugai Seiyaku Kabushiki Kaisha, priority 2011, dated 2016).
